Where two headings read alike, the source gives them in different places.

As usually defined, the IC50 is the concentration that inhibits the measured activity by half.

For test [1], the system named is panel of 54 kinases. Conditions: overall selectivity; cited from earlier work.
The next test relates to HeLa pEGFP-CK2α cells. Description: Subcellular localization of EGFP-CK2α, cell imaging. As to conditions: 12 h. It is filed as cell-based.
For the next test, the target named is CK2α (Homo sapiens, UniProt P68400). Conditions: previous hit compounds included for comparison; cited from earlier work.
Chain of CK2α (P68400 whole entry): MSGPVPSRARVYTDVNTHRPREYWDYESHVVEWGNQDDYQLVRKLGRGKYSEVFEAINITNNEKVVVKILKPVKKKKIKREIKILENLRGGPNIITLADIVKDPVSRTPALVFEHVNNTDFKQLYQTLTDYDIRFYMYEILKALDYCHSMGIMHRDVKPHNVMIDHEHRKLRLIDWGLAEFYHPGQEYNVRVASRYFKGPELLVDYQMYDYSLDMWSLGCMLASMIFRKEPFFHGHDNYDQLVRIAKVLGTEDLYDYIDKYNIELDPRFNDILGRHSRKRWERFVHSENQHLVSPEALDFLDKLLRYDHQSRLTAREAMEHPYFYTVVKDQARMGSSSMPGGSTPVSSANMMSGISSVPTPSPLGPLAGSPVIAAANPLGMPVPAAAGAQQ
The target in test [2] is CK2α2β2 (peptide substrate) (Homo sapiens, UniProt P68400). Description: Radiometric kinase assay with CK2α2β2, peptide substrate. As to conditions: peptide 29 and peptide M substrates (Figure 2B). It is filed as biochemical.
Chain of CK2α2β2 (peptide substrate) (P68400 whole entry): as above
Chain of CK2α2β2 (peptide substrate) (P67870 whole entry partner): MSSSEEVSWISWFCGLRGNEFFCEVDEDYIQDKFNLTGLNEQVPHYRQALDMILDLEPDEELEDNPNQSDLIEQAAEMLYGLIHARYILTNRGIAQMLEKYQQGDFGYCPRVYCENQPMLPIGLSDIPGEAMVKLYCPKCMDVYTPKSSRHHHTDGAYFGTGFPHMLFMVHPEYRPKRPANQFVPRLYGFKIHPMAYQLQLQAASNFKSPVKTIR
The target in another test is T1, human CK2α1−335 (Homo sapiens, UniProt P68400).
T1 sequence (P68400 1-335): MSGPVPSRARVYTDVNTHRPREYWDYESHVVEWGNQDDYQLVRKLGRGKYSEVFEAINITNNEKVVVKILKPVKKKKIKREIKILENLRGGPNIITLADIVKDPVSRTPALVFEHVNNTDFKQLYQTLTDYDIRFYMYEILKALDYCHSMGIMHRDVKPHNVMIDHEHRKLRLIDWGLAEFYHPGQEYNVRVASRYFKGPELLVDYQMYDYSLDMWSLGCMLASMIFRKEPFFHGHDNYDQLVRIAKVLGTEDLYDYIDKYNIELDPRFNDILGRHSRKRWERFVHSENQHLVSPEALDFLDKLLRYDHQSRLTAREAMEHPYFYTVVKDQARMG
Description: Isothermal titration calorimetry. As to conditions: ITC. It is filed as binding.

A further test addresses Dyrk1A (Homo sapiens, UniProt Q13627). Description: Kinase selectivity panel. As to conditions: 5 μM 27.
For test [3], the system named is panel of 54 kinases. Put plainly: Overall selectivity in kinase panel. Conditions: 5 μM.

For `O=C(O)c1ccc2c(c1)nc(Nc1cccc(Cl)c1)c1ccncc12` [CX-4945, 5-(3-chlorophenylamino)benzo[c][2,6]naphthyridine-8-carboxylic acid, reference compound], the Gini coefficient in the test with panel of 54 kinases [1] is 0.67. For the same molecule, in the test with HeLa pEGFP-CK2α cells (8 μM), the “subcellular localization of EGFP-CK2α” value was “significant translocation of EGFP-CK2α from the nucleoli to the nuclear matrix and the cytoplasm compartments”.

In the case of `O=C(O)c1cccc(Nc2nc(-c3cccc([N+](=O)[O-])c3)cs2)c1` [compound 1, 3-((4-(3-nitrophenyl)thiazol-2-yl)amino)benzoic acid], the half-inhibitory concentration (IC50) on CK2α is 30 µM.

On to `O=C(O)c1ccc(Nc2nc(-c3ccc4ccccc4c3)cs2)cc1O` [compound 27, 2-Hydroxy-4-((4-(naphthalen-2-yl)thiazol-2-yl)amino)benzoic acid], for which the “subcellular localization of EGFP-CK2α” value with HeLa pEGFP-CK2α cells (15 μM) is reported as “nucleolar localization pattern of EGFP-CK2α was mostly retained”. In addition, the “inhibition of holoenzyme complex compared with CK2α” value in test [2] was “same potency”. At human CK2α1−335, this molecule registered a TΔS of 2.53 ± 0.29 kcal/mol. Besides, the “inhibition of Dyrk1A” value against Dyrk1A was “only weakly inhibited”. The molecule further registered a Gini coefficient in the test on panel of 54 kinases [3] of 0.78.

These data come from article PMC7579840 (Journal of medicinal chemistry, 2019).
